Earlier results, collected in patent US5565433A, “Sulfated β-glycolipid derivatives as cell adhesion inhibitors” (Bristol-Myers Squibb Company, priority 1996, dated 1996).

What was measured:
[1] = system: P-selectin; details: cells grown in the presence of sodium selenate; cited from earlier work
[2] = system: P-selectin; details: Larsen et al.; Erbe et al.; Aruffo et al.; cited from earlier work

| Compound | inhibition of P-selectin binding to myeloid cell lines (in words) [1] | P-selectin binding (in words) [2] |
| --- | --- | --- |
| O=[Se](=O)(O)O [sodium selenate] | can be inhibited | – |
| sialyl-Le^x | – | has been shown to bind |
